# Data taken from patent US8937048B2, “Anti-angiogenic compounds” (Covx Technologies Ireland, Limited, priority 2008, dated 2015).
# pIC50: −log10 of the molar value. Where a SMILES comes first, the peptide text is derived from it. Bridges are numbered along the chain shown (N, C = ends). [ ]: non-standard residue; d: D form.
# Target: T1, recombinant human VEGF165 (Homo sapiens, UniProt P15692)
# T1 sequence (P15692 27-191 isoform P15692-4): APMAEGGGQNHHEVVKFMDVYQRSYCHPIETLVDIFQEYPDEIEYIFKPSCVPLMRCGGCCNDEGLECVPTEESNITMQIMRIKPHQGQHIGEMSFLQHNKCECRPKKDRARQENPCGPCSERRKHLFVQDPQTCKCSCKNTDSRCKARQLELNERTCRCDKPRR
# Test: VEGF peptide binding assay (competition ELISA, VEGF165 binding to coated VEGFR2/Fc)
# Protocol: High-binding half-well 96-well plates (Costar #3690) were coated with recombinant human VEGFR2/Fc (50 ng/well) in 50 μl PBS, and incubated at 4° C. overnight. After washing the plates three times with 1× washing buffer (KPL Cat#50-65-00) and blocking with Superblock (Scytek #AAA500) at room temperature (RT) for 1 hour, VEGF-peptides of the invention were serially diluted (concentrations: 0.128-10,000 nM) in the presence of 25 ng/ml of recombinant human VEGF165 in […] Superblock, and were then added to the 96-well plates and incubated at RT for 1 hour. Peptides of the invention tested in this fashion were all capped at the amino terminus with a C(O)CH3 group and at the carboxyl terminus with a NH2 group. The plates were then washed three times with washing buffer, and a diluted (1:500) biotinylated anti-human VEGF antibody (R&D systems, Cat# BAF293) was added and incubated at RT for 2 hours. After washing the plates, streptavidin HRP conjugate (1:200 in Superblock) (R&D systems, Cat# DY998) was added to detect the bound anti-VEGF antibody, followed by addition of tetramethylbenzidine (TMB) substrate (Pierce, Cat#34021) for color development. The reaction was stopped with 2 M H2SO4. OD450 was measured using SpectraMax (Molecular Device) with a correction wavelength of 540 nm. The data were analyzed using Prism software. OD450 values were plotted as a function of the concentrations of the VEGF peptides. IC50 values, indicative of the potency of the VEGF peptides to inhibit VEGF-VEGFR2 interaction, were obtained using a sigmoid dose-response curve fit in Prism.
row,Structure (SMILES),pIC50
1,"CC[C@H](C)[C@@H]1NC(=O)[C@H](CC(=O)O)NC(=O)[C@@H](NC(=O)[C@H](CC(N)=O)NC(=O)[C@@H]2CCCN2C(=O)[C@H](CCC(=O)O)NC(=O)[C@@H](NC(C)=O)C(C)C)CSSC[C@@H](C(=O)N[C@@H](Cc2ccccc2)C(=O)N[C@@H](CCC(=O)O)C(=O)N[C@@H](CCCNC(=N)N)C(=O)N[C@@H](CC(C)C)C(=O)N[C@@H](Cc2ccccc2)C(=O)N[C@@H](CCCNC(=N)N)C(=O)N[C@@H](CCC(=O)O)C(=O)N[C@@H](C)C(N)=O)NC(=O)[C@H](C(C)C)NC(=O)[C@H](Cc2c[nH]c3ccccc23)NC(=O)[C@H](C(C)C)NC(=O)[C@H](Cc2c[nH]c3ccccc23)NC(=O)[C@H](CCSC)NC(=O)[C@H](C(C)C)NC(=O)[C@H](Cc2c[nH]cn2)NC1=O [Compound 36, VEPNCDIHVMWVWVCFERLFREA] (Ac-VEPNCDIHVMWVWVCFERLFREA-NH2; disulfide 5-15 (inferred))",6.76
2,"CC[C@H](C)[C@@H]1NC(=O)[C@H](CC(=O)O)NC(=O)[C@@H](NC(=O)[C@H](CC(N)=O)NC(=O)[C@@H]2CCCN2C(=O)[C@H](CCC(=O)O)NC(=O)[C@@H](NC(C)=O)C(C)C)CSSC[C@@H](C(=O)N[C@@H](Cc2ccccc2)C(=O)N[C@@H](CCC(=O)O)C(=O)N[C@@H](CCCNC(=N)N)C(=O)N[C@@H](CC(C)C)C(=O)N[C@@H](Cc2ccc(O)cc2)C(=O)NCC(=O)N2CCC[C@H]2C(=O)N[C@@H](Cc2c[nH]c3ccccc23)C(N)=O)NC(=O)[C@H](CCC(=O)O)NC(=O)[C@H](Cc2c[nH]c3ccccc23)NC(=O)[C@H](C(C)C)NC(=O)[C@H](Cc2c[nH]c3ccccc23)NC(=O)[C@H](CCSC)NC(=O)[C@H](C(C)C)NC(=O)[C@H](Cc2c[nH]cn2)NC1=O [Compound 66, VEPNCDIHVMWVWECFERLYGPW] (Ac-VEPNCDIHVMWVWECFERLYGPW-NH2; disulfide 5-15 (inferred))",7.73
3,"CC[C@H](C)[C@@H]1NC(=O)[C@H](CC(=O)O)NC(=O)[C@@H](NC(=O)[C@H](CC(N)=O)NC(=O)[C@@H]2CCCN2C(=O)[C@H](CCC(=O)O)NC(=O)[C@@H](NC(C)=O)C(C)C)CSSC[C@@H](C(=O)N[C@@H](Cc2ccccc2)C(=O)N[C@@H](CCC(=O)O)C(=O)N[C@@H](CCCNC(=N)N)C(=O)N[C@@H](CC(C)C)C(=O)N[C@@H](Cc2ccc(O)cc2)C(=O)NCC(=O)NCC(=O)NCC(N)=O)NC(=O)[C@H](CCC(=O)O)NC(=O)[C@H](Cc2c[nH]c3ccccc23)NC(=O)[C@H](C(C)C)NC(=O)[C@H](Cc2c[nH]c3ccccc23)NC(=O)[C@H](CCSC)NC(=O)[C@H](C(C)C)NC(=O)[C@H](Cc2c[nH]cn2)NC1=O [Compound 61, VEPNCDIHVMWVWECFERLYGGG] (Ac-VEPNCDIHVMWVWECFERLYGGG-NH2; disulfide 5-15 (inferred))",7.63
4,"CC[C@H](C)[C@@H]1NC(=O)[C@H](CC(=O)O)NC(=O)[C@@H](NC(=O)[C@H](CC(N)=O)NC(=O)[C@@H]2CCCN2C(=O)[C@H](CCC(=O)O)NC(=O)[C@@H](NC(C)=O)C(C)C)CSSC[C@@H](C(=O)N[C@@H](Cc2ccccc2)C(=O)N[C@@H](CCC(=O)O)C(=O)N[C@@H](CCCNC(=N)N)C(=O)N[C@@H](CC(C)C)C(=O)N[C@H](CC(C)C)C(=O)N[C@@H](CCCCNC(C)=O)C(N)=O)NC(=O)[C@H](CCC(=O)O)NC(=O)[C@H](Cc2c[nH]c3ccccc23)NC(=O)[C@H](C(C)C)NC(=O)[C@H](Cc2c[nH]c3ccccc23)NC(=O)[C@H](CCSC)NC(=O)[C@H](C(C)C)NC(=O)[C@H](Cc2c[nH]cn2)NC1=O [Compound 60, V-E-P-N-C-D-I-H-V-M-W-V-W-E-C-F-E-R-L-(D-Leu)-(Kac)] (Ac-VEPNCDIHVMWVWECFERL[dL]K(Ac)-NH2; disulfide 5-15 (inferred))",7.60
5,"CC[C@H](C)[C@@H]1NC(=O)[C@H](CC(=O)O)NC(=O)[C@@H](NC(=O)[C@H](CC(N)=O)NC(=O)[C@@H]2CCCN2C(=O)[C@H](CCC(=O)O)NC(=O)[C@@H](NC(C)=O)C(C)C)CSSC[C@@H](C(=O)N[C@@H](Cc2ccccc2)C(=O)N[C@@H](CCC(=O)O)C(=O)N[C@@H](CCCNC(=N)N)C(=O)N[C@@H](CC(C)C)C(=O)N[C@@H](CC(C)C)C(=O)N[C@@H](CCCCNC(C)=O)C(N)=O)NC(=O)[C@H](CCC(=O)O)NC(=O)[C@H](Cc2c[nH]c3ccccc23)NC(=O)[C@H](C(C)C)NC(=O)[C@H](Cc2c[nH]c3ccccc23)NC(=O)[C@H](CCSC)NC(=O)[C@H](C(C)C)NC(=O)[C@H](Cc2c[nH]cn2)NC1=O [Compound 68, VEPNCDIHVMWVWECFERLL-(Kac)] (Ac-VEPNCDIHVMWVWECFERLLK(Ac)-NH2; disulfide 5-15 (inferred))",8.00
6,"CC[C@H](C)[C@@H]1NC(=O)[C@H](CC(=O)O)NC(=O)[C@@H](NC(=O)[C@H](CC(N)=O)NC(=O)[C@@H]2CCCN2C(=O)[C@H](CCC(=O)O)NC(=O)[C@@H](NC(C)=O)C(C)C)CSSC[C@@H](C(=O)N[C@@H](Cc2ccccc2)C(=O)N[C@@H](CCC(=O)O)C(=O)N[C@@H](CCCNC(=N)N)C(=O)N[C@@H](CC(C)C)C(=O)N[C@@H](CCSC)C(=O)N[C@@H](CCCNC(=N)N)C(N)=O)NC(=O)[C@H](CCC(=O)O)NC(=O)[C@H](Cc2c[nH]c3ccccc23)NC(=O)[C@H](C(C)C)NC(=O)[C@H](Cc2c[nH]c3ccccc23)NC(=O)[C@H](CCSC)NC(=O)[C@H](C(C)C)NC(=O)[C@H](Cc2c[nH]cn2)NC1=O [Compound 49, VEPNCDIHVMWVWECFERLMR] (Ac-VEPNCDIHVMWVWECFERLMR-NH2; disulfide 5-15 (inferred))",7.46
7,"CC[C@H](C)[C@@H]1NC(=O)[C@H](CC(=O)O)NC(=O)[C@@H](NC(=O)[C@H](CC(N)=O)NC(=O)[C@@H]2CCCN2C(=O)[C@H](CCC(=O)O)NC(=O)[C@@H](NC(C)=O)C(C)C)CSSC[C@@H](C(=O)N[C@@H](Cc2ccccc2)C(=O)N[C@@H](CCC(=O)O)C(=O)N[C@@H](CCCNC(=N)N)C(=O)N[C@@H](CC(C)C)C(=O)N[C@@H](Cc2ccccc2)C(=O)N[C@@H](CCCCN)C(=O)N[C@@H](CCC(=O)O)C(=O)N[C@@H](C)C(N)=O)NC(=O)[C@H](C(C)C)NC(=O)[C@H](Cc2c[nH]c3ccccc23)NC(=O)[C@H](C(C)C)NC(=O)[C@H](Cc2c[nH]c3ccccc23)NC(=O)[C@H](CCSC)NC(=O)[C@H](C(C)C)NC(=O)[C@H](Cc2c[nH]cn2)NC1=O [Compound 37, VEPNCDIHVMWVWVCFERLFKEA] (Ac-VEPNCDIHVMWVWVCFERLFKEA-NH2; disulfide 5-15 (inferred))",7.23
8,"CC[C@H](C)[C@@H]1NC(=O)[C@H](CC(=O)O)NC(=O)[C@@H](NC(=O)[C@H](CC(N)=O)NC(=O)[C@@H]2CCCN2C(=O)[C@H](CCC(=O)O)NC(=O)[C@@H](NC(C)=O)C(C)C)CSSC[C@@H](C(=O)N[C@@H](Cc2ccccc2)C(=O)N[C@@H](CCC(=O)O)C(=O)N[C@@H](CCCNC(=N)N)C(=O)N[C@@H](CC(C)C)C(N)=O)NC(=O)[C@H](CCC(=O)O)NC(=O)[C@H](Cc2c[nH]c3ccccc23)NC(=O)[C@H](CCC(=O)O)NC(=O)[C@H](Cc2c[nH]c3ccccc23)NC(=O)[C@H](CCSC)NC(=O)[C@H](C(C)C)NC(=O)[C@H](Cc2c[nH]cn2)NC1=O [Compound 34, V-E-P-N-C-D-I-H-V-M-W-E-W-E-C-F-E-R-L] (Ac-VEPNCDIHVMWEWECFERL-NH2; disulfide 5-15 (inferred))",6.73
9,"CC[C@H](C)[C@@H]1NC(=O)[C@H](CC(=O)O)NC(=O)[C@@H](NC(=O)[C@H](CC(N)=O)NC(=O)[C@@H]2CCCN2C(=O)[C@H](CCC(=O)O)NC(=O)[C@@H](NC(C)=O)C(C)C)CSSC[C@@H](C(=O)N[C@@H](Cc2ccccc2)C(=O)N[C@@H](CCC(=O)O)C(=O)N[C@@H](CCCNC(=N)N)C(=O)N[C@@H](CC(C)C)C(=O)N[C@@H](Cc2ccc(O)cc2)C(=O)NCC(=O)N[C@@H](CC(C)C)C(=O)N[C@@H](Cc2ccc(O)cc2)C(N)=O)NC(=O)[C@H](CCC(=O)O)NC(=O)[C@H](Cc2c[nH]c3ccccc23)NC(=O)[C@H](C(C)C)NC(=O)[C@H](Cc2c[nH]c3ccccc23)NC(=O)[C@H](CCSC)NC(=O)[C@H](C(C)C)NC(=O)[C@H](Cc2c[nH]cn2)NC1=O [Compound 44, VEPNCDIHVMWVWECFERLYGLY] (Ac-VEPNCDIHVMWVWECFERLYGLY-NH2; disulfide 5-15 (inferred))",7.26
10,"CC[C@H](C)[C@@H]1NC(=O)[C@H](CC(=O)O)NC(=O)[C@@H](NC(=O)[C@H](CC(N)=O)NC(=O)[C@@H]2CCCN2C(=O)[C@H](CCC(=O)O)NC(=O)[C@@H](NC(C)=O)C(C)C)CSSC[C@@H](C(=O)N[C@@H](Cc2ccccc2)C(=O)N[C@@H](CCC(=O)O)C(=O)N[C@@H](CCCNC(=N)N)C(=O)N[C@@H](CC(C)C)C(=O)N[C@@H](Cc2ccc(O)cc2)C(=O)NCC(=O)N[C@@H](CC(C)C)C(N)=O)NC(=O)[C@H](CCC(=O)O)NC(=O)[C@H](Cc2c[nH]c3ccccc23)NC(=O)[C@H](C(C)C)NC(=O)[C@H](Cc2c[nH]c3ccccc23)NC(=O)[C@H](CCSC)NC(=O)[C@H](C(C)C)NC(=O)[C@H](Cc2c[nH]cn2)NC1=O [Compound 72, VEPNCDIHVMWVWECFERLYGL] (Ac-VEPNCDIHVMWVWECFERLYGL-NH2; disulfide 5-15 (inferred))",8.32
